From PMC5844530, “Fosmetpantotenate (RE-024), a phosphopantothenate replacement therapy for pantothenate kinase-associated neurodegeneration: Mechanism of action and efficacy in nonclinical models” (PLoS ONE, 2018)
Several values for one entry are separate records, joined by “and”; a condition that tells them apart may be missing. Equal values may be shown once.

Tests used:
[1] = Pharmacokinetics in whole blood, CD-1 mice; settings: CD-1 mice, individual animals; for concentration at 0.083 hr / concentration at 0.333 h / concentration at 0.5 h / concentration at 1 h / concentration at 4 h: male, CD-1, mouse, in vivo, po, Compound 1 Whole Blood Conc.; for concentration at 0.5 h / concentration at 1 h: 300 mg/kg, 300 mg/kg RE-024-02 by PO
[2] = Pharmacokinetics in whole blood, cynomolgus monkeys
[3] = Pharmacokinetics in whole blood, Sprague-Dawley rats; settings: for % Parent AUCAll: Sprague-Dawley rat, metabolite AUCall/Parent AUCall x 100; for Whole Blood Conc. of compound 1: Sprague-Dawley rats; for concentration at 0.167 h / concentration at 0.33 h: Sprague-Dawley, rat, in vivo, po, Whole Blood Conc. of compound 1, Sprague-Dawley rats
Experimental: The whole blood samples (0.5 mL) were collected into syringes that were prefilled with 2.5 mL of ice-cold 0.1% formic acid in acetonitrile. The volume ratio of the whole blood to 0.1% formic acid in acetonitrile was 1/5 (v/v). Samples were frozen (-70°C) until analyzed by LC-MS/MS.
Standard curves and quality control (QC) samples were prepared fresh on the day of analysis by serial dilution of the standard mixture in quenched whole blood (1 part of blood to 5 parts of 0.1% formic acid in acetonitrile) and centrifuged. […] The frozen study samples were thawed in an ice/water bath and centrifuged. Supernatant (50 μL) from standards, QC samples, and study samples was transferred to a 96-well plate and dried completely under nitrogen. The dried residues were reconstituted with 100 μL of 0.1% formic acid in water containing internal standard (5 ng/mL of ^15N/^13C3-RE-024-02) and analyzed by LC-MS/MS.
LC-MS/MS analysis for blood pharmacokinetic samples: Samples were analyzed using an Agilent 1100 binary pump (Agilent Technologies, Santa Clara, CA, USA), connected to an AB Sciex API 6500 mass spectrometer (SCIEX, Framingham, MA, USA). An electrospray ionization source was used, scanning in the positive mode. […] The chromatography column was a Varian Metasil AQ 120–5 C18 column, 5 μm, 50 x 2.00 mm (Part No. A0530050X020) at ambient temperature, with a 0.5 mL/min flow rate and a 20 μL injection volume. Mobile phase (A) consisted of 0.1% formic acid in water; while mobile phase (B) consisted of 0.1% formic acid in acetonitrile:water (9:1, v/v).
Quantitation of in vivo samples: Peak areas were integrated using Analyst software (AB Sciex, Concord, Ontario, Canada). […] Calibration standards (at a minimum 7 per curve) were fit by linear regression with (1/x^2) weighting. QC samples were used (triplicate) at 3 concentrations for all tandem mass spectrometry (MS/MS) runs.
Pharmacokinetic calculations: PK analysis was performed using Phoenix WinNonlin®, Build 6.3.0.395 (Certara, Princeton, NJ, USA) using a non-compartmental model (PO dose = model 200 for extravascular dosing). […] Post-dose concentrations below the limit of quantitation (BLQ) were omitted from calculation.

[4] = 100 mg/kg, 100 mg/kg RE-024-02 by PO, LLOQ 0.6 ng/mL
[5] = 100 mg/kg, 100 mg/kg RE-024-02 by PO, LLOQ 1.6 nM

For `COC(=O)CCNC(=O)[C@@H]1OP(=O)(N[C@@H](C)C(=O)OC)OCC1(C)C` (some centres unmarked) [Compound 1], the “Compound 1 Whole Blood Conc.” value ([1]; 700 mg/kg RE-024-02 by PO, 4 hr, LLOQ 0.6 ng/mL, 700 mg/kg) was “BQL”, the “Compound 1 Whole Blood Conc.” value ([1]; 700 mg/kg RE-024-02 by PO, 4 hr, LLOQ 1.6 nM, 700 mg/kg) was “BQL” and the “Compound 1 Whole Blood Conc.” value ([1]; 700 mg/kg RE-024-02 by PO, 8 hr, LLOQ 0.6 ng/mL) was “BQL”. The “Compound 1 Whole Blood Conc.” value ([1]; 700 mg/kg RE-024-02 by PO, 8 hr, LLOQ 1.6 nM) was “BQL”, the concentration at 0.083 hr [1, 4] was 1.4 ng/mL and the concentration at 0.083 hr [1, 5] was 3.8 nM. The concentration at 0.333 h [1, 4] was 0.8 ng/mL, the concentration at 0.333 h [1, 5] was 2 nM and the concentration at 0.5 h ([1]; LLOQ 0.6 ng/mL) was 5 ng/mL. For the same compound, the concentration at 0.5 h ([1]; LLOQ 1.6 nM) was 13.1 nM, the concentration at 1 h ([1]; LLOQ 0.6 ng/mL) was 0.8 ng/mL and the concentration at 1 h ([1]; LLOQ 1.6 nM) was 2.1 nM. For the same compound, the concentration at 0.333 h ([1]; 700 mg/kg, 700 mg/kg RE-024-02 by PO, LLOQ 0.6 ng/mL) was 109 ng/mL, the concentration at 0.333 h ([1]; 700 mg/kg, 700 mg/kg RE-024-02 by PO, LLOQ 1.6 nM) was 286 nM and the concentration at 4 h ([1]; 700 mg/kg, 700 mg/kg RE-024-02 by PO, 4 hr, LLOQ 0.6 ng/mL) was 0.8 ng/mL. The concentration at 4 h ([1]; 700 mg/kg, 700 mg/kg RE-024-02 by PO, 4 hr, LLOQ 1.6 nM) was 2.1 nM, the “% Parent AUCAll” value ([2]; Cynomolgus monkey, 300 mg/kg PO, metabolite AUCall/Parent AUCall x 100) was 19% and the concentration at 0.083 h ([2]; cynomolgus monkey, in vivo, po, 300 mg/kg, Concentration of compound 1 in whole blood, cynomolgus monkeys, single oral 300 mg/kg fosmetpantotenate, 0.083 hr, sum of diastereomers, LLOQ 1.58 nM) was 17.2 nM. It also gave a concentration at 0.5 h ([2]; cynomolgus monkey, in vivo, po, 300 mg/kg, Concentration of compound 1 in whole blood, cynomolgus monkeys, single oral 300 mg/kg fosmetpantotenate, 0.5 hr, sum of diastereomers, LLOQ 1.58 nM) of 2480 nM, a concentration at 4 h ([2]; cynomolgus monkey, in vivo, po, 300 mg/kg, Concentration of compound 1 in whole blood, cynomolgus monkeys, single oral 300 mg/kg fosmetpantotenate, 4 hr, sum of diastereomers, LLOQ 1.58 nM) of 54.6 nM and a concentration at 8 h ([2]; cynomolgus monkey, in vivo, po, 300 mg/kg, Concentration of compound 1 in whole blood, cynomolgus monkeys, single oral 300 mg/kg fosmetpantotenate, 8 hr, sum of diastereomers, LLOQ 1.58 nM) of 7.89 nM. For the same compound, the “Concentration of compound 1 in whole blood” value ([2]; cynomolgus monkeys, single oral 300 mg/kg fosmetpantotenate, 0.083 hr, sum of diastereomers, LLOQ 1.58 nM, 300 mg/kg) was 11.28 nM, the “Concentration of compound 1 in whole blood” value ([2]; cynomolgus monkeys, single oral 300 mg/kg fosmetpantotenate, 0.5 hr, sum of diastereomers, LLOQ 1.58 nM, 300 mg/kg) was 3160.36 nM and the “Concentration of compound 1 in whole blood” value ([2]; cynomolgus monkeys, single oral 300 mg/kg fosmetpantotenate, 4 hr, sum of diastereomers, LLOQ 1.58 nM, 300 mg/kg) was 96.23 nM. For the same compound, the “Concentration of compound 1 in whole blood” value ([2]; cynomolgus monkeys, single oral 300 mg/kg fosmetpantotenate, 8 hr, sum of diastereomers, LLOQ 1.58 nM, 300 mg/kg) was 4.57 nM, the “% Parent AUCAll” value ([3]; 300 mg/kg PO) was 39% and the “% Parent AUCAll” value ([3]; 700 mg/kg PO) was 22%. The “Whole Blood Conc. of compound 1” value ([3]; single 100 mg/kg RE-024-02 PO, time 0.5, LLOQ 0.60 ng/mL) was “BQL”, the “Whole Blood Conc. of compound 1” value ([3]; single 100 mg/kg RE-024-02 PO, time 0.5, LLOQ 1.58 nM) was “BQL” and the “Whole Blood Conc. of compound 1” value ([3]; single 100 mg/kg RE-024-02 PO, time 1, LLOQ 0.60 ng/mL) was “BQL”. For the same compound, the “Whole Blood Conc. of compound 1” value ([3]; single 100 mg/kg RE-024-02 PO, time 1, LLOQ 1.58 nM) was “BQL”, the “Whole Blood Conc. of compound 1” value ([3]; single 100 mg/kg RE-024-02 PO, time 2, LLOQ 0.60 ng/mL) was “BQL” and the “Whole Blood Conc. of compound 1” value ([3]; single 100 mg/kg RE-024-02 PO, time 2, LLOQ 1.58 nM) was “BQL”. The “Whole Blood Conc. of compound 1” value ([3]; single 100 mg/kg RE-024-02 PO, time 4, LLOQ 0.60 ng/mL) was “BQL”, the “Whole Blood Conc. of compound 1” value ([3]; single 100 mg/kg RE-024-02 PO, time 4, LLOQ 1.58 nM) was “BQL” and the “Whole Blood Conc. of compound 1” value ([3]; single 100 mg/kg RE-024-02 PO, time 8, LLOQ 0.60 ng/mL) was “BQL”. For the same compound, the “Whole Blood Conc. of compound 1” value ([3]; single 100 mg/kg RE-024-02 PO, time 8, LLOQ 1.58 nM) was “BQL”, the “Whole Blood Conc. of compound 1” value ([3]; single 300 mg/kg RE-024-02 PO, time 0.33, LLOQ 0.60 ng/mL, 300 mg/kg) was 41.34 ng/mL and 21.6 ng/mL and the “Whole Blood Conc. of compound 1” value ([3]; single 300 mg/kg RE-024-02 PO, time 0.33, LLOQ 1.58 nM, 300 mg/kg) was 108.7 nM and 56.79 nM. For the same compound, the “Whole Blood Conc. of compound 1” value ([3]; single 300 mg/kg RE-024-02 PO, time 2, LLOQ 0.60 ng/mL) was “BQL”, the “Whole Blood Conc. of compound 1” value ([3]; single 300 mg/kg RE-024-02 PO, time 2, LLOQ 1.58 nM) was “BQL” and the “Whole Blood Conc. of compound 1” value ([3]; single 300 mg/kg RE-024-02 PO, time 4, LLOQ 0.60 ng/mL) was “BQL”. The “Whole Blood Conc. of compound 1” value ([3]; single 300 mg/kg RE-024-02 PO, time 4, LLOQ 1.58 nM) was “BQL”, the “Whole Blood Conc. of compound 1” value ([3]; single 300 mg/kg RE-024-02 PO, time 8, LLOQ 0.60 ng/mL) was “BQL” and the “Whole Blood Conc. of compound 1” value ([3]; single 300 mg/kg RE-024-02 PO, time 8, LLOQ 1.58 nM) was “BQL”. For the same compound, the “Whole Blood Conc. of compound 1” value ([3]; single 700 mg/kg RE-024-02 PO, time 8, LLOQ 0.60 ng/mL) was “BQL”, the “Whole Blood Conc. of compound 1” value ([3]; single 700 mg/kg RE-024-02 PO, time 8, LLOQ 1.58 nM) was “BQL” and the concentration at 0.167 h ([3]; 100 mg/kg, single 100 mg/kg RE-024-02 PO, time 0.167, LLOQ 0.60 ng/mL) was 3.88 ng/mL. For the same compound, the concentration at 0.167 h ([3]; 100 mg/kg, single 100 mg/kg RE-024-02 PO, time 0.167, LLOQ 1.58 nM) was 10.2 nM, the concentration at 0.33 h ([3]; 100 mg/kg, single 100 mg/kg RE-024-02 PO, time 0.33, LLOQ 0.60 ng/mL) was 1.21 ng/mL and the concentration at 0.33 h ([3]; 100 mg/kg, single 100 mg/kg RE-024-02 PO, time 0.33, LLOQ 1.58 nM) was 3.18 nM. For the same compound, the concentration at 0.33 h ([3]; 300 mg/kg, single 300 mg/kg RE-024-02 PO, time 0.33, LLOQ 0.60 ng/mL) was 22.6 ng/mL and the concentration at 0.33 h ([3]; 300 mg/kg, single 300 mg/kg RE-024-02 PO, time 0.33, LLOQ 1.58 nM) was 59.3 nM.
